The target of this test is T1, CaV2.2 (Homo sapiens, UniProt Q00975).
T1 construct: expressed in transfected cells; host or cells: HEK293
As to the kind of experiment: VIPR optical membrane potential assay with electrical stimulation. The test is classed as cell-based. In outline: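 HEK293 cells stably expressing CaV2.2, stained with CC2-DMPE (10 μM final) and oxonol voltage-sensitive dyes, compound added with BaCl2. Membrane potential response evoked by 3-5 s electrical stimulation. Read as background-subtracted 460/580 nm emission ratio, response R=Rf/Ri, normalized to mibefradil positive and no-drug negative controls.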

[1] abbreviates: Table 3, biological assay data, read-out: IC50.

Molecules are shown by their SMILES. pIC50: −log10 of the molar value. Read-outs that look alike come from different tables or passages of the source.

T1 sequence (Q00975 whole entry): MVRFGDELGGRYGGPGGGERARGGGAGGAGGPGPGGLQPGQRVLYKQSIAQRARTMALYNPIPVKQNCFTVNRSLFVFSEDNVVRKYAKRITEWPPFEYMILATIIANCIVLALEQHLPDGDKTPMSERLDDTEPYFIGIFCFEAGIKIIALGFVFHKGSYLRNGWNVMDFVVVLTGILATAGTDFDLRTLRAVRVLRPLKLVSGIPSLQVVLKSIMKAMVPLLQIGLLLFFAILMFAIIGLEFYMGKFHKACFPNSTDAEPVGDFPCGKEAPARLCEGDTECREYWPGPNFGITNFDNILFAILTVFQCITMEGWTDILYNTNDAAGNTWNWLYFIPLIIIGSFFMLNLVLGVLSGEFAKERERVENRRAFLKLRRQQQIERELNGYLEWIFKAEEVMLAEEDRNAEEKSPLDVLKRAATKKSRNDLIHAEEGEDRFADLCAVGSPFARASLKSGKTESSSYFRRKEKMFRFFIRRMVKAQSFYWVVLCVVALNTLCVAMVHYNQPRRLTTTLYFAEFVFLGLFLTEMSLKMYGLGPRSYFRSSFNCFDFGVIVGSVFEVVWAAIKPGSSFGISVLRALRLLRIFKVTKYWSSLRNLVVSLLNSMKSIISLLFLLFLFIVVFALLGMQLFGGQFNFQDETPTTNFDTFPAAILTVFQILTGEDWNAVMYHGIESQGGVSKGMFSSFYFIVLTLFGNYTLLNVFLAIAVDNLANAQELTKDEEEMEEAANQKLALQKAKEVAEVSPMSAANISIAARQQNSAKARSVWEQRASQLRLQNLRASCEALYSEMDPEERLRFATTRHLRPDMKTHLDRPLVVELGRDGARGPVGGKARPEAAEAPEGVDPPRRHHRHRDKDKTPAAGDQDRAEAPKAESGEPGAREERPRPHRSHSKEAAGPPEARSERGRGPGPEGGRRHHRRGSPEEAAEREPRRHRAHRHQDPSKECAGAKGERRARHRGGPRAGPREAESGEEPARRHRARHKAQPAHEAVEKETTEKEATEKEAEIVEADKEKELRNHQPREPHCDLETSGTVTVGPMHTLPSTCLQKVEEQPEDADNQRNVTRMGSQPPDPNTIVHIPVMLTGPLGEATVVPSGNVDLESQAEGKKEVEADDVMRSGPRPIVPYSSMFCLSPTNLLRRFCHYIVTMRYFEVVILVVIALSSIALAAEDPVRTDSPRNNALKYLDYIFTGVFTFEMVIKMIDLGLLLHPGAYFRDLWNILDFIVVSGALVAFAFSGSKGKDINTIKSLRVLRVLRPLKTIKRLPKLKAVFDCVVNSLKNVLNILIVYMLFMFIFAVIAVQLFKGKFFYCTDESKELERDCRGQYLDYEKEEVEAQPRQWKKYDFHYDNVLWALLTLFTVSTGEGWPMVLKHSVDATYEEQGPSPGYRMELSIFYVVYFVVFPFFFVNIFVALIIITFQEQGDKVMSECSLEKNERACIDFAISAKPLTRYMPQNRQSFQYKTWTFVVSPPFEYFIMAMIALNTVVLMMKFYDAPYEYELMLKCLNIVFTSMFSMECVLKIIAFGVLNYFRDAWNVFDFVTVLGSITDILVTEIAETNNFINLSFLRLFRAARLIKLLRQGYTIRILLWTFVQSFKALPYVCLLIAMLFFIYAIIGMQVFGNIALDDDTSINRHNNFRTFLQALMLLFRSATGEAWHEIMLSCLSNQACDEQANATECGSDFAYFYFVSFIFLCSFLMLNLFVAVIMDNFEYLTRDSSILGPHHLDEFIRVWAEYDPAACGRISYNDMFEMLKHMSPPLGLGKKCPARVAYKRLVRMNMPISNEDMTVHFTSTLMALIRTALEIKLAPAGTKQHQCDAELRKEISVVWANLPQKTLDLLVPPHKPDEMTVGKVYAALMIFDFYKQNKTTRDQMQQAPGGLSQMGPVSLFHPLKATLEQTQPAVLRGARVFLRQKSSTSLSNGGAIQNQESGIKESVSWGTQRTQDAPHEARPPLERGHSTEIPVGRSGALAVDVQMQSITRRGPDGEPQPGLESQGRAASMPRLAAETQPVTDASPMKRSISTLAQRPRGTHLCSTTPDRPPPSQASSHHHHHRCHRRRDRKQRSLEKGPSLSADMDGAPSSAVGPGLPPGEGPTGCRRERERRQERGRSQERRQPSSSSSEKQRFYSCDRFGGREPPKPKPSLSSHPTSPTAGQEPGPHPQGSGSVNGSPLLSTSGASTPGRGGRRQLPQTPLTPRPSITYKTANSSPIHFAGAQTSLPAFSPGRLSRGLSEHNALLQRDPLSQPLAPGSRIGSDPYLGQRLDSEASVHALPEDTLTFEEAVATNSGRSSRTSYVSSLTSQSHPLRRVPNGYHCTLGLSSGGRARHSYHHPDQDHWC
T1 sequence (P54284 whole entry partner): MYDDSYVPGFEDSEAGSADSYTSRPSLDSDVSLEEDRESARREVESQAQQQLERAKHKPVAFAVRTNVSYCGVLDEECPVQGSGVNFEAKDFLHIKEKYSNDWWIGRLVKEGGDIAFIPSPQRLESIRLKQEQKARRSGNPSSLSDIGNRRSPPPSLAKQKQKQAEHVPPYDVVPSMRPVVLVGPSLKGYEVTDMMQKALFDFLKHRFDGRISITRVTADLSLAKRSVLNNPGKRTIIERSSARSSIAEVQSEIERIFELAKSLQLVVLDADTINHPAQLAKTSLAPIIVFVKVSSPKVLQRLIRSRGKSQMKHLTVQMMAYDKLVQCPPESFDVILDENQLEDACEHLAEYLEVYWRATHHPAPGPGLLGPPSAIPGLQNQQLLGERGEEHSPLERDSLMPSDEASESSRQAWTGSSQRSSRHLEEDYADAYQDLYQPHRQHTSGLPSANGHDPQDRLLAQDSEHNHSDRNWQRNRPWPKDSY
T1 sequence (P54289 25-946 partner limits assumed): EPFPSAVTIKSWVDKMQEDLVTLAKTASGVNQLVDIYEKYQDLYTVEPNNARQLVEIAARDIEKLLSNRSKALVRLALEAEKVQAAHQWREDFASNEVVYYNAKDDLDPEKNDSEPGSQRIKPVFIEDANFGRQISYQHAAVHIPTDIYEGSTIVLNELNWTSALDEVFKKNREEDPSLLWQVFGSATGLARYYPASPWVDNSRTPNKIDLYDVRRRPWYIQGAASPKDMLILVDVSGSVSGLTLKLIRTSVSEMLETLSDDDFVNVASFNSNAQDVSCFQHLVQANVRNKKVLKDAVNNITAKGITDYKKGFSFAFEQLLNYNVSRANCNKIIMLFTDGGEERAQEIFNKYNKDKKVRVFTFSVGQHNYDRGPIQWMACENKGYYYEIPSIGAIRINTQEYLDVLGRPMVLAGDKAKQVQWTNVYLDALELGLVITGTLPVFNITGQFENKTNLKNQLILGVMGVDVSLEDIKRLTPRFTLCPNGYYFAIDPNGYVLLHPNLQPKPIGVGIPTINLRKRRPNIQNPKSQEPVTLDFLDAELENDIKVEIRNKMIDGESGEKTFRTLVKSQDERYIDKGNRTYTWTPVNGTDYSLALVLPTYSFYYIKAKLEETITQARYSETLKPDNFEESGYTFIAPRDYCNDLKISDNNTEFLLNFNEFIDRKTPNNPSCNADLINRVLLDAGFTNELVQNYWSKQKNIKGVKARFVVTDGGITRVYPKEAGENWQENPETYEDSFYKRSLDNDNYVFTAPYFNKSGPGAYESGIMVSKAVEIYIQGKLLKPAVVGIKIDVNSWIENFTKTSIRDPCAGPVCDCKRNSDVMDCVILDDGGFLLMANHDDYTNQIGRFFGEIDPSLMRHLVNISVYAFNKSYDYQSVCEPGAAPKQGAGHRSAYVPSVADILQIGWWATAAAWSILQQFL
T1 sequence (P54289 947-1103 partner limits assumed): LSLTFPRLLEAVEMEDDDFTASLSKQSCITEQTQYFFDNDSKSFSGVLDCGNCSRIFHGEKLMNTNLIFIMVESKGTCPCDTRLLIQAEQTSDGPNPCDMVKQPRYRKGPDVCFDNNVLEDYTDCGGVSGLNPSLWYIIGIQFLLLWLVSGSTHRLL

Turning to `CCN(CC)S(=O)(=O)c1ccc2oc(C(=O)NCCc3ccccc3)c(C)c2c1` [compound 291], under setting [1], the pIC50 was 4.70 to 5.30.

On to `COc1ccc(S(=O)(=O)n2c(C(=O)N3CCCCC3)cc3cc(S(=O)(=O)N4CC(C)CC(C)C4)ccc32)cc1` (centres unmarked) [compound 292], for which, under setting [1], the negative-log IC50 (pIC50) was more than 5.30.

`CC1CCN(S(=O)(=O)c2ccc3oc(C(=O)N4CC(C)CC(C)C4)cc3c2)CC1` (centres unmarked) [compound 293]: under setting [1], the pIC50 was more than 5.30.

On to `Cc1c(C(=O)NC2CCCC2)oc2ccc(S(=O)(=O)N3CCCCCC3)cc12` [compound 294], for which the pIC50 under setting [1] was more than 5.30.

Consider `CNC(=O)c1cc2cc(S(=O)(=O)N3CCCCCC3)ccc2o1` [compound 295], for which the pIC50 under setting [1] was 4.70 to 5.30.

Regarding `O=C(NC1CCCCC1)c1cc2cc(S(=O)(=O)N3CCCCCC3)ccc2[nH]1` [compound 296], under setting [1], the pIC50 was more than 4.70.

For the compound `Cc1c(C(=O)N2CCCCC2C)[nH]c2ccc(S(=O)(=O)N3CC(C)CC(C)C3)cc12` (centres unmarked) [compound 297], the pIC50 under setting [1] is more than 5.30.

Take `CCN(CC)S(=O)(=O)c1ccc2oc(C(=O)NCc3ccc(C)cc3)c(C)c2c1` [compound 298]: the pIC50 under setting [1] is 4.70 to 5.30.

On to `Cc1c(C(=O)N2CCC3(CC2)OCCO3)oc2ccc(S(=O)(=O)N3CCCC(C)C3)cc12` (centres unmarked) [compound 299], for which the pIC50 is 4.70 to 5.30.

As for `Cc1c(C(=O)N2CCCCC2)oc2ccc(S(=O)(=O)N3CCCC(C)C3)cc12` (centres unmarked) [compound 300], the pIC50 under setting [1] was more than 5.30.

On to `CCNC(=O)c1[nH]c2ccc(S(=O)(=O)N3CCC(C)CC3)cc2c1C` [compound 301], for which, under setting [1], the pIC50 was 4.70 to 5.30.

For the compound `Cc1c(C(=O)NC2CC2)oc2ccc(S(=O)(=O)NCc3ccncc3)cc12` [compound 302], under setting [1], the pIC50 is more than 4.70.

In the case of `CNC(=O)c1cc2cc(S(=O)(=O)N3CCCCCC3)ccc2[nH]1` [compound 303], under setting [1], the pIC50 was more than 5.30.

Turning to `O=C(NC1CCCC1)c1cc2cc(S(=O)(=O)N3CCCCCC3)ccc2o1` [compound 304], the pIC50 under setting [1] is more than 5.30.

With `Cc1c(C(=O)NCc2ccccc2)oc2ccc(S(=O)(=O)N3CCCCC3)cc12` [compound 305], the pIC50 under setting [1] was 4.70 to 5.30.

Consider `CC1CCN(S(=O)(=O)c2ccc3[nH]cc(C(N)=O)c3c2)CC1` [compound 306], for which the pIC50 under setting [1] was more than 4.70.

`Cc1c(C(=O)N2CCC(C)CC2)oc2ccc(S(=O)(=O)N3CCCCCC3)cc12` [compound 307]: the pIC50 under setting [1] was more than 5.30.

With `CCN(CC)S(=O)(=O)c1ccc2oc(C(=O)N(C)Cc3ccccc3)c(C)c2c1` [compound 308], the pIC50 under setting [1] is more than 5.30.

In the case of `Cc1c(C(=O)NC2CCCCC2)[nH]c2ccc(S(=O)(=O)N3CCCCCC3)cc12` [compound 309], the pIC50 under setting [1] was more than 5.30.

Regarding `CCNC(=O)c1oc2ccc(S(=O)(=O)N3CCCC(C)C3)cc2c1C` (centres unmarked) [compound 310], the pIC50 under setting [1] was 4.70 to 5.30.

In the case of `CC1CCN(S(=O)(=O)c2ccc3oc(C(=O)N4CCCCC4)cc3c2)CC1` [compound 311], under setting [1], the pIC50 was more than 5.30.

With `CN(c1ccc2[nH]c(C(=O)NC3CC3)cc2c1)S(=O)(=O)c1ccccc1` [compound 312], the pIC50 under setting [1] was 4.70 to 5.30.

Take `CC1CCN(S(=O)(=O)c2ccc3[nH]c(C(=O)N4CCN(C)CC4)cc3c2)CC1` [compound 313]: the pIC50 under setting [1] is 4.70 to 5.30.

For the compound `CCN(CC)C(=O)c1cc2cc(S(=O)(=O)N3CC(C)CC(C)C3)ccc2n1CC(O)CN(C)C` (centres unmarked) [compound 314], under setting [1], the pIC50 was 4.70 to 5.30.

`CCN(CC)C(=O)c1cc2cc(S(=O)(=O)N3CCC(C)CC3)ccc2[nH]1` [compound 315]: under setting [1], the pIC50 was more than 5.30.

For `Cc1c(C(=O)NC2CC2)oc2ccc(S(=O)(=O)Nc3ncns3)cc12` [compound 316], the pIC50 under setting [1] was more than 4.70.

As to `Cc1c(C(=O)N(C)Cc2ccccc2)oc2ccc(S(=O)(=O)N3CCCCCC3)cc12` [compound 317], the pIC50 under setting [1] was more than 5.30.

`CCN(CC)S(=O)(=O)c1ccc2oc(C(=O)NCCCc3ccccc3)c(C)c2c1` [compound 318]: the pIC50 under setting [1] was 4.70 to 5.30.

As to `CC1CCN(S(=O)(=O)c2ccc3[nH]c(C(=O)N4CC(C)CC(C)C4)cc3c2)CC1` (centres unmarked) [compound 319], the negative-log IC50 (pIC50) under setting [1] was 4.70 to 5.30.

On to `Cc1c(C(=O)NCCC2=CCCCC2)oc2ccc(S(=O)(=O)N3CCC4(CC3)OCCO4)cc12` [compound 320], for which the pIC50 under setting [1] is 4.70 to 5.30.

On to `CCCCN(C)C(=O)c1oc2ccc(S(=O)(=O)N3CC(C)CC(C)C3)cc2c1C` (centres unmarked) [compound 321], for which, under setting [1], the pIC50 is more than 5.30.

For `CCN(CC)S(=O)(=O)c1ccc2oc(C(=O)NCCC3CCOCC3)c(C)c2c1` [compound 322], under setting [1], the pIC50 is more than 4.70.

As to `CC1CC(C)CN(S(=O)(=O)c2ccc3[nH]c(C(=O)NCCCc4ccccc4)cc3c2)C1` (centres unmarked) [compound 323], the pIC50 under setting [1] was more than 5.30.

Turning to `Cc1c(C(=O)N2CCCC2)[nH]c2ccc(S(=O)(=O)N3CC(C)CC(C)C3)cc12` (centres unmarked) [compound 324], the pIC50 under setting [1] is more than 5.30.

For `CCCCN(C)C(=O)c1oc2ccc(S(=O)(=O)N3CCC(C)CC3)cc2c1C` [compound 325], the pIC50 under setting [1] was more than 5.30.

Consider `CCN(CC)Cc1cc2cc(S(=O)(=O)N3CCC(C)CC3)ccc2[nH]1` [compound 326], for which the pIC50 under setting [1] is more than 5.30.

Regarding `CC1CC(C)CN(S(=O)(=O)c2ccc3oc(C(=O)NCC4CCOCC4)cc3c2)C1` (centres unmarked) [compound 327], the pIC50 under setting [1] was more than 5.30.

`CCOC(=O)N1CCN(C(=O)c2oc3ccc(S(=O)(=O)N(CC)CC)cc3c2C)CC1` [compound 328]: the pIC50 under setting [1] is more than 4.70.

In the case of `CC1CC(C)CN(S(=O)(=O)c2ccc3[nH]c(C(=O)NC4CCCCC4)cc3c2)C1` (centres unmarked) [compound 329], the pIC50 under setting [1] is 4.70 to 5.30.

Turning to `Cc1c(C(=O)N2CCCCCC2)oc2ccc(S(=O)(=O)N3CC(C)CC(C)C3)cc12` (centres unmarked) [compound 330], under setting [1], the pIC50 is more than 5.30.

In the case of `Cc1c(C(=O)NC2CCCCC2)[nH]c2ccc(S(=O)(=O)N3CC(C)CC(C)C3)cc12` (centres unmarked) [compound 331], the pIC50 under setting [1] was more than 5.30.

`CCN(CC)S(=O)(=O)c1ccc2oc(C(=O)N3CCCC3)c(C)c2c1` [compound 332]: under setting [1], the pIC50 was more than 4.70.

On to `CC1CC(C)CN(S(=O)(=O)c2ccc3oc(C(=O)N4CCCCC4C)cc3c2)C1` (centres unmarked) [compound 333], for which the pIC50 under setting [1] was 4.70 to 5.30.

In the case of `Cc1c(C(=O)N2CCCCC2C)oc2ccc(S(=O)(=O)N3CCCCCC3)cc12` (centres unmarked) [compound 334], the pIC50 under setting [1] was 4.70 to 5.30.

On to `O=C(NCCC1CCOCC1)c1cc2cc(S(=O)(=O)N3CCCCCC3)ccc2[nH]1` [compound 335], for which, under setting [1], the pIC50 was more than 5.30.

For `CCOC(=O)C1CCN(C(=O)c2oc3ccc(S(=O)(=O)N4CC(C)CC(C)C4)cc3c2C)CC1` (centres unmarked) [compound 336], under setting [1], the pIC50 is more than 5.30.

With `CCN(CC)S(=O)(=O)c1ccc2oc(C(=O)NCc3ccc(F)cc3)c(C)c2c1` [compound 337], the pIC50 under setting [1] is more than 5.30.

For `CC1CCN(S(=O)(=O)c2ccc3[nH]cc(C(=O)N4CCN(C)CC4)c3c2)CC1` [compound 338], the pIC50 under setting [1] was more than 4.70.

`CC1CCN(C(=O)c2cc3cc(S(=O)(=O)N4CC(C)CC(C)C4)ccc3o2)CC1` (centres unmarked) [compound 339]: the pIC50 under setting [1] was more than 5.30.

For the compound `CC1CCN(S(=O)(=O)c2ccc3[nH]c(C(=O)NCCc4ccccc4)cc3c2)CC1` [compound 340], the pIC50 under setting [1] was more than 5.30.

On to `CCN(CC)S(=O)(=O)c1ccc2oc(C(=O)N3CCCCCC3)c(C)c2c1` [compound 341], for which the negative-log IC50 (pIC50) under setting [1] is 4.70 to 5.30.

As to `Cc1c(C(=O)N2CCC(C)CC2)[nH]c2ccc(S(=O)(=O)N3CCCCCC3)cc12` [compound 342], the pIC50 under setting [1] is more than 5.30.

Compound `Cc1c(C(=O)N2CCC3(CC2)OCCO3)oc2ccc(S(=O)(=O)N3CC(C)CC(C)C3)cc12` (centres unmarked) [compound 343] had a pIC50 of 4.70 to 5.30.

`CC1CC(C)CN(S(=O)(=O)c2ccc3[nH]c(C(=O)N4CCC5(CC4)OCCO5)cc3c2)C1` (centres unmarked) [compound 344] showed a pIC50 of more than 5.30.

Turning to `CC1CCN(S(=O)(=O)c2ccc3[nH]c(C(=O)NCC4CCOCC4)cc3c2)CC1` [compound 345], under setting [1], the pIC50 was more than 5.30.

Turning to `CCOC(=O)N1CCN(C(=O)c2cc3cc(S(=O)(=O)N4CC(C)CC(C)C4)ccc3o2)CC1` (centres unmarked) [compound 346], the pIC50 under setting [1] was more than 5.30.

As to `Cc1c(C(=O)N2CCCCCC2)oc2ccc(S(=O)(=O)N3CCC(C)CC3)cc12` [compound 347], under setting [1], the pIC50 was 4.70 to 5.30.

For `CC1CCN(S(=O)(=O)c2ccc3[nH]c(C(=O)N4CCCCCC4)cc3c2)CC1` [compound 348], under setting [1], the pIC50 is 4.70 to 5.30.

Regarding `CC1CC(C)CN(S(=O)(=O)c2ccc3c(c2)cc(C(=O)NC2CC2)n3S(=O)(=O)c2ccccc2)C1` (centres unmarked) [compound 349], under setting [1], the pIC50 is more than 5.30.

In turn, `Cc1c(C(=O)N2CCC3(CC2)OCCO3)[nH]c2ccc(S(=O)(=O)N3CCC(C)CC3)cc12` [compound 351] had a pIC50 of 4.70 to 5.30.

`Cc1c(C(=O)NCC2CCCO2)oc2ccc(S(=O)(=O)N3CCCCC3)cc12` (centres unmarked) [compound 352]: under setting [1], the pIC50 is 4.70 to 5.30.

On to `Cc1c(C(=O)N(C)C)oc2ccc(S(=O)(=O)N3CCC(C)CC3)cc12` [compound 353], for which, under setting [1], the pIC50 is 4.70 to 5.30.

With `O=C(c1cc2cc(S(=O)(=O)N3CCCCCC3)ccc2[nH]1)N1CCCCC1` [compound 354], the pIC50 under setting [1] is 4.70 to 5.30.

In the case of `Cc1c(C(=O)NCC2CCCO2)[nH]c2ccc(S(=O)(=O)N3CCC(C)CC3)cc12` (centres unmarked) [compound 355], under setting [1], the pIC50 was 4.70 to 5.30.

`CCN(CC)S(=O)(=O)c1ccc2oc(C(=O)N3CCC4(CC3)OCCO4)c(C)c2c1` [compound 356] gave a negative logarithm of the IC50 (pIC50) of more than 4.70.

Consider `CC1CC(C)CN(S(=O)(=O)c2ccc3[nH]c(C(=O)NCc4ccccc4)cc3c2)C1` (centres unmarked) [compound 357], for which the pIC50 under setting [1] is more than 5.30.

Consider `O=C(c1cc2cc(S(=O)(=O)N3CCCCCC3)ccc2[nH]1)N1CCCCCC1` [compound 358], for which the pIC50 under setting [1] is 4.70 to 5.30.

For `Cc1c(C(=O)N2CCOCC2)oc2ccc(S(=O)(=O)N3CCC(C)CC3)cc12` [compound 359], under setting [1], the pIC50 was 4.70 to 5.30.

On to `Cc1c(C(=O)N(C)Cc2ccccc2)oc2ccc(S(=O)(=O)N3CCOCC3)cc12` [compound 360], for which, under setting [1], the negative logarithm of the IC50 (pIC50) is 4.70 to 5.30.

`Cc1c(C(=O)NC2CCCC2)oc2ccc(S(=O)(=O)N3CCOCC3)cc12` [compound 361]: under setting [1], the pIC50 was more than 4.70.

For the compound `Cc1c(C(=O)N2CCCCCC2)[nH]c2ccc(S(=O)(=O)N3CC(C)CC(C)C3)cc12` (centres unmarked) [compound 362], the pIC50 under setting [1] is more than 5.30.

The term pIC50 denotes −log10 of the IC50, conventionally taken in molar units.

(Values after patent US8211935B2, “Heterocyclic derivatives for modulation of calcium channels” (Vertex Pharmaceuticals Incorporated, priority 2004, dated 2012).)
